The conditions of series [1]: cited from earlier work; for MTD: clinical.
The next series concerns primary DIPG cell lines. In words: Effect on primary DIPG cell lines / primary tumor astrocytes. It counts as cell-based. From the text:
Maternal embryonic leucine zipper kinase (MELK) is a serine/threonine kinase implicated in many cellular processes involved in embryogenesis and oncogenesis. Overexpression of MELK is a common feature of diffuse intrinsic pontine glioma (DIPG) and related to tumor grade.

Another series deals with normal astrocytes. In words: Effect on normal astrocytes. It counts as cell-based. Conditions: 10 nanomolar.
The nature of series [2]: Transport over the blood-brain barrier, brain-to-plasma ratio. In kind it is in vivo, mouse.

Read-outs that look alike come from different tables or passages of the source.

As to `Cc1cccc(-c2nn3c(c2-c2ccnc4ccc(C(N)=O)cc24)CCC3)n1` [Galunisertib], the MTD result in series [1] (result in words) is given as “Not able to determine MTD due to potential cardiovascular DLT”.
With `CCN(CCCOc1ccc2c(Nc3cc(CC(=O)Nc4cccc(F)c4)n[nH]3)ncnc2c1)CCOP(=O)(O)O` [AZD1152], the MTB in series [1] (clinical evaluation, dependent on the dosing schedule) was 200 to 450 mg.
For `C[C@@H](Oc1cc(-c2cnn(C3CCNCC3)c2)cnc1N)c1c(Cl)ccc(F)c1Cl` [Crizotinib], the MTD in series [1] was 250 mg twice a day.
With `CC[C@H](Nc1ncnc2[nH]cnc12)c1nc2cccc(F)c2c(=O)n1-c1ccccc1` [Idelalisib], the MTD result in series [1] is listed as “Not reached up to 350 mg twice a day”.
For `Nc1ncn([C@H]2C[C@H](O)[C@@H](CO)O2)c(=O)n1` [Decitabine], the MTD in series [1] (over 1-3 days) is on record as 1,500-2,000/mg/m^2 over 1-3 days.
In the case of Pembrolizumab, in series [1], the MTD result was “Not reached up to 10 mg/kg q2w”.
With `CC(=O)c1cnc2ccc(-c3cc(Cl)c(O)c(Cl)c3)nc2c1NC1CCC(CN(C)C)CC1` (stereo not shown) [OTS167, 1-[6-(3,5-Dichloro-4-hydroxyphenyl)-4-({4-[(dimethylamino)methyl]cyclohexyl}amino)-1,5-naphthyridin-3-yl]ethanone], the “Toxicity / apoptosis on primary tumor astrocytes” value in the series with primary DIPG cell lines (10 nM, most DIPG tumor cell lines) is “toxic and induces apoptosis”. Besides, in the series on primary DIPG cell lines (low nanomolar concentrations), the “Cell death in primary DIPG cell lines” value is “induces cell death”, the “Migration of primary DIPG cell lines” value is listed as “effectively inhibits migration” and the “Proliferation of primary DIPG cell lines” value was “reduces proliferation”. In the series with normal astrocytes, the “Apoptosis in non-somatic (normal) cells” value is reported as “no apoptosis occurs” and the “Growth of normal astrocytes” value was “only slightly slows down the growth”. Moreover, the “Factor of increase of concentration in brain tissue” value in series [2] (co-administering a P-glycoprotein1 / Abcb1a inhibitor) is on record as at least 4. Further, in series [2] (mouse, brain and plasma, mouse models (wild type), passive transport, read-out: Brain-to-plasma (B/P) ratio), the Kp came out at 0.02. Further, the “Absolute concentration reached in the brain” value in series [2] (with pharmaceutically acceptable toxic adverse effects) was “about 10 nanomolar”.
In the case of `CS(=O)(=O)c1ccc(C(=O)Nc2ccc(Cl)c(-c3ccccn3)c2)c(Cl)c1` [Vismodegib], in series [1], the MTD entry was “Not reached up to 540 mg/d”.

Values taken from patent US20230301973A1, “TREATMENT OF DIFFUSE INTRINSIC PONTINE GLIOMA” (priority 2016, published 2023).
